Reference: patent US4202902A, “Lipogenesis control by cyclopropane-carboxylic acids, esters and amides” (Shell Oil Company, priority 1979, dated 1980)

Assays:
swine adipose tissue = assay: In vitro inhibition of lipogenesis (incorporation of radioactive glucose carbon into lipid) in swine adipose tissue slices; type: cell-based; conditions: Sus scrofa, 100 micrograms per milliliter, 37° C., 2 hours, 5% DMSO, compared to control without test compound, triplicate, read-out: Percent Inhibition of lipogenesis
Text: The manner in which they cause this effect is not known with certainty; it is believed that they interfere with the synthesis of fatty acids in the tissue. Their effectiveness for this purpose has been ascertained by immersing samples of swine adipose tissue in a liquid medium containing radioactive glucose and the test chemical for a period time, then isolating the lipid from the treated tissue and determining the incorporation of the ratioactive carbon into the lipid by means of scintillation counting techniques. These tests were conducted in swine adipose tissue because in swine the primary site of lipogenesis--i.e., fatty acid synthesis--appears to be adipose tissue.
Described in more detail, the tests were conducted according to the following general procedure.
150 milligrams of slices of swine adipose tissue were incubated at 37° C. for 2 hours with shaking in 3 milliliters of Krebs-Ringer bicarbonate solution containing one-half the usual calcium ion concentration, 60 micromoles of glucose, 0.5 microCurie of glucose-U^14 C, and 100 milliunits of insulin, and 5% dimethyl sulfoxide (DMSO). The test compounds were added as a solution or suspension in DMSO and were present at a concentration of 100 micrograms per milliliter of the incubation mixture.
The incubation was terminated by addition of 0.25 milliliter of 1 N sulfuric acid. The resulting mixture was extracted with a total of 25 milliliters of chloroform:methanol (2:1 v/v). The extracts were washed according to Folch et al. (J. Biol. Chem., 226, 497-509, (1957)), air dried, and counted in a liquid scintillation counter with 15 milliliters of counting fluid (two parts toluene containing 0.4% w/v New England Nuclear Omnifluor: 1 part Triton X-100). The tests were conducted in triplicate and were accompanied by control tests in which all ingredients,proportions and conditions were the same except that no test compound was included. From the data obtained were calculated the percent inhibition of lipid synthesis by the test compound in each case. The data obtained from these tests were set out in Table I, as the percent inhibition of lipogenesis compared to the results obtained in the control tests wherein only the test compound was omitted.

[1] = system: swine adipose tissue lipid synthesis; assay: In vivo inhibition of swine adipose tissue lipid synthesis (pigs dosed in feed, biopsy slices incubated with radioactive glucose); conditions: approx. 25 mg/kg per day for seven days in ration, compared to control animals; for lipogenic rate after 2 weeks: biopsy 1 week after withdrawal of drug; for effect on lipogenesis after 1 week: biopsy after 1 week of drug administration
Method: Compounds 1 and 6 were tested to determine the in vivo inhibition of swine adipose tissue lipid synthesis, as follows: pigs weighing about 20 kilograms were administered a fixed drug dose of approximately 25 milligrams of drug per kilogram of animal body weight per day for seven consecutive days. The drug was formulated to contain 10%w active ingredient and was prepared as coarse granules using 4%w plasdene as the granulating agent and lactose as the carrier. […] The daily drug or placebo dose was added to 1.2 kilograms of swine ration; about one-third of the total was fed at 0800, 1200, and 1600 hours. Biopsy samples were obtained from the dorsal subcutaneous adipose tissue (ca 1 gram) in the neck region before drug administration, after 1 week of drug administration, and 1 week after withdrawal of drug. Adipose tissue slices were prepared from the biopsy sample, and in vitro lipogenesis was determined with radioactive glucose as substrate. The incubation was similar to that previously described except that there was no DMSO or test compound in the flasks.

SMILES	inhibition at 100 µg/mL (swine adipose tissue) [%]	lipogenic rate after 2 weeks [1]	effect on lipogenesis after 1 week [1]
CCCCCCCC[C@@H]1C[C@H]1C(=O)OCC (relative stereo) [Compound 1, Ethyl 2-octylcyclopropanecarboxylate (trans)]	> 20	significantly reduced the lipogenic rate	neither of the test compounds had significantly affected lipogenesis
CCCCCCCCC[C@@H]1C[C@H]1C(=O)OCC (relative stereo) [Compound 2, Ethyl 2-nonylcyclopropanecarboxylate (trans-)]	27		
CCCCCCCC[C@@H]1C[C@H]1C(N)=O (relative stereo) [Compound 4, 2-Octylcyclopropanecarboxamide (trans)]	> 20		
CCCCCCCCC[C@@H]1C[C@H]1C(=O)O (relative stereo) [Compound 5, 2-Nonylcyclopropanecarboxylic acid (trans)]	79		
CCCCCCCC[C@@H]1C[C@H]1C(=O)O (relative stereo) [Compound 6, 2-octylcyclopropanecarboxylic acid (trans)]	77	significantly reduced the lipogenic rate	neither of the test compounds had significantly affected lipogenesis
CCCCCCCCCCCCCC[C@@H]1C[C@H]1C(=O)O (relative stereo) [Compound 7, 2-tetradecylcyclopropanecarboxylic acid (trans)]	46		
CCCCCCCCC[C@@H]1C[C@H]1C(N)=O (relative stereo) [Compound 8, 2-Nonylcyclopropanecarboxycarboxamide (trans)]	34		
O=C(O)[C@@H]1C[C@H]1c1ccccc1 (relative stereo) [Compound 13, 2-phenylcyclopropane-1-carboxylic acid (trans)]	32		
CCCCC1CC1C(=O)OCC (stereo not drawn) [Compound 3, Ethyl 2-butylcyclopropanecarboxylate]	24		
CCOC(=O)C1(C#N)CC1c1ccccc1 (stereo not drawn) [Compound 9, Ethyl 1-cyano-2-phenylcyclopropanecarboxylate]	57		
CCCCCCC1CC1(C#N)C(=O)OCC (stereo not drawn) [Compound 10, Ethyl 1-cyano-2-hexylcyclopropanecarboxylate (trans-)]	44		
N#CC1(C(=O)O)CC1c1ccccc1 (stereo not drawn) [Compound 11, 1-Cyano-2-phenylcyclopropanecarboxylic acid]	49		
CCOC(=O)C1CC1COC(C)=O (stereo not drawn) [Compound 12, Ethyl 2-((acetyloxy)methyl)cyclopropanecarboxylate]	31		
CCOC(=O)C1CC1(C#N)c1ccccc1 (stereo not drawn) [Compound 14, Ethyl 2-cyano-2-phenylcyclopropanecarboxylate]	53		
